The structures appear in SMILES notation.

From a melting point compilation (Tetko et al.) come the findings set out here.

Take `COc1ccc(S(=O)(=O)CCC(=O)O)cc1OC`: the melting point fell in the range of 139 to 141 °C.

In the case of `CC(O)c1nc2ccccc2n1C(F)F` (stereo not drawn), the melting point fell in the range of 96 to 98 °C.

For `CC1CCN(CC(C)C(=O)NN)CC1` (stereo not drawn), the melting point lay in the range of 113 to 115 °C.

As to `Cn1cnc(S(=O)(=O)NC2CCCC2)c1Cl`, the melting point was 136 to 138 °C.

In the case of `O=Cc1c(Cl)cccc1OCc1ccccc1Cl`, the melting point lay in the range of 92 to 94 °C.

The compound `O=C(O)CCOc1ccc(-c2ccccc2)cc1` came in with a melting point of 174 to 176 °C.

`Cc1c(Br)cc(C(=O)O)cc1S(=O)(=O)Cl`: the melting point fell in the range of 183 to 185 °C.

In turn, `Brc1cnc(NCc2ccncc2)nc1` displayed a melting point of 122 to 124 °C.

For `COc1ccc(S(=O)(=O)Cl)cc1C`, the melting point was 51 to 53 °C.

`O=C(O)C1CC1C(=O)N1CCN(c2ccccc2)CC1` (stereo not drawn) displayed a melting point of 155 to 157 °C.

`O=C(O)/C=C/C1=C(Cl)c2ccccc2S1(=O)=O`: the melting point is 266 to 268 °C.

`O=C(O)CCc1cncc(F)c1` displayed a melting point of 165 to 167 °C.

The compound `CC1CCCC(NC(=O)CCl)C1C` (stereo not drawn) displayed a melting point of 125 to 127 °C.

As to `Cc1ccc(CNC(=O)c2ccccc2N)cc1`, the melting point was 140 to 142 °C.

As to `Cc1ccccc1NCC(=O)N1CCCCC1`, the melting point lay within 78 to 80 °C.

`CC(Oc1ccccc1Br)C(=O)O` (stereo not drawn): the melting point lay in the range of 138 to 140 °C.

Compound `Cc1cc(N)[nH]c(=O)c1` yielded a melting point of 256 to 258 °C.

`Cc1nc(-c2ccc(Cl)cc2)sc1C(C)N` (stereo not drawn) gave a melting point of 42 to 44 °C.

In turn, `CC(C)(C(=O)O)c1cccc(Br)c1` came in with a melting point of 68 to 70 °C.

The compound `CN(C)C(=O)c1ccc(Cl)nn1` had a melting point of 137 to 139 °C.

`NC(CC(=O)O)c1cc(Cl)cc(Cl)c1` (stereo not drawn): the melting point was in the range of 205 to 207 °C.

The compound `CCCNC(=O)c1ccc(Cl)nc1` registered a melting point of 108 to 110 °C.

`COCCc1nnc(S)n1N` had a melting point of 118 to 120 °C.

In turn, `O=C(Nc1nccs1)C1CCNCC1` showed a melting point of 196 to 198 °C.

Compound `C#CCn1cnc2c(N)ncnc21` yielded a melting point of 184 to 186 °C.

`O=C(O)c1sccc1-c1ccc(F)cc1` had a melting point of 199 to 201 °C.

Compound `O=C(O)CCC(=O)NCC(=O)c1ccccc1Cl` gave a melting point of 151 to 153 °C.

`O=C1CCCCC1n1ccc([N+](=O)[O-])n1` (stereo not drawn) returned a melting point of 128 to 130 °C.

`COc1ccc(NC(=O)C2(N)CCCC2)cc1OC` yielded a melting point of 116 to 118 °C.

In turn, `O=Cc1cccc(OC(F)(F)C(=O)O)c1` came in with a melting point of 64 to 66 °C.

Compound `O=C(CCc1ccccc1)c1ccccc1` had a melting point of 69 to 71 °C.

Compound `CC(C)(Cc1cccc(Cl)c1)C(=O)O` gave a melting point of 56 to 58 °C.

`O=C(O)c1ccc2nnc(C(F)F)n2c1` returned a melting point of 278 to 280 °C.

Take `O=Cc1ccc(Br)cc1[N+](=O)[O-]`: the melting point fell in the range of 95 to 100 °C.

Compound `O=C(O)C=Cc1ccc(OC(F)F)cc1` showed a melting point of 182 to 184 °C.

For `COCCNC(=O)NC(=O)CCl`, the melting point was in the range of 103 to 105 °C.

`CC(Cl)C(=O)Nc1ccccc1Cc1ccccc1` (stereo not drawn) displayed a melting point of 144 to 146 °C.

Consider `CC(C)C(Br)C(=O)NC(C)(C)C` (stereo not drawn), for which the melting point is 135 to 137 °C.

As to `CCOC(=O)C1CCN(S(=O)(=O)Cl)CC1`, the melting point was 38 to 40 °C.

`CCOC(=O)c1ccc2c(c1)nc(C)n2CC` came in with a melting point of 70 to 72 °C.

Consider `CCNc1ccc(S(=O)(=O)C(F)F)cc1N`, for which the melting point fell in the range of 115 to 117 °C.

In turn, `Cc1cc(N)ccc1N1CCSCC1` yielded a melting point of 67 to 69 °C.

On to `CC(C)(C)OC(=O)N1C(=O)N(CC#N)C(C)(C)C1=O`, for which the melting point was 149 to 151 °C.

For the compound `Cn1c(=O)[nH]c2ccccc2c1=O`, the melting point was 242 to 244 °C.

The compound `Cc1cc(C)n(-c2ccccc2N)n1` had a melting point of 81 to 83 °C.

Take `Cc1nonc1C(=O)O`: the melting point was 69 to 71 °C.

On to `NC(=O)c1ccc(CSc2ccc(C(=O)O)cc2)cc1`, for which the melting point lay in the range of 304 to 306 °C.

The compound `O=C(O)CCCc1ccc(Cl)cc1` came in with a melting point of 58 to 60 °C.

Compound `CCOC(=O)c1c(CC(C)C)csc1N` yielded a melting point of 58 to 60 °C.

On to `CCC(=O)Nc1ccc(O)cc1`, for which the melting point was 169 to 171 °C.

Take `Cc1ccccc1-c1cnc(N)s1`: the melting point was 119 to 121 °C.

`CCc1nc(C)c(C(=O)O)s1` showed a melting point of 165 to 167 °C.

Compound `Nc1nc(C2CC2)ns1` came in with a melting point of 144 to 146 °C.

The compound `CC(C)c1nn(-c2ccccc2)c(Cl)c1C=O` showed a melting point of 53 to 55 °C.

In turn, `O=C(O)c1ccc(S(=O)(=O)N2CCCCC2)cc1` gave a melting point of 270 to 272 °C.

As to `O=Cc1cnc(-c2cnccn2)s1`, the melting point is 159 to 161 °C.

`NNC(=O)c1cc([N+](=O)[O-])c[nH]1` came in with a melting point of 280 to 282 °C.

`CCc1nnc(-c2cccc(N)c2)o1`: the melting point lay within 88 to 90 °C.

Regarding `COc1n[nH]c(N)c1C#N`, the melting point was in the range of 179 to 181 °C.

Compound `CCOC(=O)c1cc2c(nc1N)CCCC2` registered a melting point of 127 to 129 °C.

As to `CCCn1c(C)cc(C=O)c1C`, the melting point was 52 to 54 °C.

Turning to `COc1cc(F)c(C(C)=O)cc1OC`, the melting point fell in the range of 92 to 94 °C.

`Cc1cc2cc(C(=O)O)oc2cc1C` yielded a melting point of 269 to 271 °C.

For `CC(Cl)C(=O)Nc1ccc2c(c1)OCCCO2` (stereo not drawn), the melting point is 97 to 99 °C.

In turn, `COc1ccc(SCCC(=O)O)cc1` came in with a melting point of 81 to 83 °C.

As for `Cc1ccc(S(=O)(=O)NC(C)(C)C)cc1N`, the melting point lay within 124 to 126 °C.

For `Nc1nc(CCl)nc(Nc2ccccc2)n1`, the melting point lay within 139 to 141 °C.

Compound `O=C(c1ccsc1)N1CCNCC1` had a melting point of 235 to 237 °C.

Compound `O=C(O)c1n[nH]c2c1CCC2` came in with a melting point of 287 to 289 °C.

`CC(C)(C)OC(=O)Nc1cccc(CC(=O)O)c1` showed a melting point of 97 to 99 °C.

Consider `CCn1c(=O)n(CC(=O)O)c2ccccc21`, for which the melting point was 229 to 231 °C.

As for `CC(C)(C)OC(=O)NCC1CCCCS1(=O)=O` (stereo not drawn), the melting point was 97 to 99 °C.

In the case of `N#CCN(CC#N)C(=O)CCCl`, the melting point lay in the range of 62 to 64 °C.

In turn, `O=Cc1csc(-c2ccc(Cl)cc2)n1` had a melting point of 124 to 126 °C.

`O=C(O)CCNC(=O)OCc1ccccc1` registered a melting point of 104 to 108 °C.

`CS(=O)(=O)N1CCc2cc(C(=O)CCl)ccc21`: the melting point fell in the range of 137 to 139 °C.

Turning to `NNC(=O)CSc1ccccc1F`, the melting point lay within 131 to 133 °C.

The compound `CC(CC(=O)O)c1cccc(F)c1` (stereo not drawn) displayed a melting point of 33 to 35 °C.

The compound `NC(=O)C1CCCN(C(=O)CCl)C1` (stereo not drawn) displayed a melting point of 124 to 126 °C.

`CC(C)(C)OC(=O)N1CCN(C(=O)C2CCCNC2)CC1` (stereo not drawn) gave a melting point of 119 to 121 °C.

Take `COc1ccc(N)cc1OCC1CCCO1` (stereo not drawn): the melting point was in the range of 85 to 87 °C.

As for `CCc1cc2c(=O)[nH]cnc2s1`, the melting point fell in the range of 183 to 185 °C.

On to `O=C(O)Cn1cccc(C(F)(F)F)c1=O`, for which the melting point was in the range of 199 to 201 °C.

In the case of `CC(C)(C)OC(=O)NCC1CCCCC1O` (stereo not drawn), the melting point was 57 to 59 °C.

For `Cc1ccc(-c2nnc(CCC(=O)O)o2)cc1`, the melting point lay within 169 to 171 °C.

Consider `N#CCc1cc(Br)ccc1F`, for which the melting point was in the range of 43 to 45 °C.

With `Cc1nc(-c2cccc(NC(=O)OCC(F)(F)F)c2)cs1`, the melting point lay within 94 to 96 °C.

Turning to `O=C(CN1CCCC(C(=O)O)C1)Nc1ccccc1` (stereo not drawn), the melting point was 100 to 102 °C.

In turn, `Cc1noc(C2CC2)c1NC(=O)OC(C)(C)C` returned a melting point of 108 to 110 °C.

`Fc1ccc(CCNC2=NCCS2)cc1`: the melting point fell in the range of 106 to 108 °C.

The compound `Cc1cc(F)c(S(N)(=O)=O)cc1[N+](=O)[O-]` returned a melting point of 159 to 161 °C.

The compound `CCOC(=O)C(NC(=O)c1ccc(Cl)c(Cl)c1)C(C)O` (stereo not drawn) yielded a melting point of 68 to 70 °C.

`Cc1cc(C)nc(-n2[nH]c(C(=O)O)cc2=O)n1` had a melting point of 246 to 248 °C.

`CC(=O)c1nnn(-c2ccc(F)cc2)c1C` returned a melting point of 77 to 79 °C.

Compound `Sc1nc2ccccc2n1CCc1ccccc1` yielded a melting point of 177 to 179 °C.

With `Cc1ccc(OC(C)C(=O)O)c(Br)c1` (stereo not drawn), the melting point lay within 120 to 122 °C.

Consider `CNC(=S)NCCN1CCOCC1`, for which the melting point lay within 103 to 105 °C.

For the compound `COc1ccc(C(=O)NCCCC(=O)O)cc1`, the melting point was 122 to 124 °C.

In the case of `Cc1ccc(-c2cnnn2-c2ccc(C(=O)O)cc2)cc1`, the melting point was 236 to 238 °C.

Turning to `CCNC(=O)CCC(=O)O`, the melting point lay in the range of 84 to 86 °C.

Consider `CC(C)(C)NS(=O)(=O)c1ccc(F)c(N)c1`, for which the melting point fell in the range of 99 to 101 °C.

As for `O=C1CCN(c2ccc([N+](=O)[O-])cc2)CC1`, the melting point lay within 162 to 164 °C.

As to `CCOC(=O)/C(C#N)=C/Nc1ccc(F)cc1F`, the melting point was 142 to 144 °C.

With `Cc1ccc(F)cc1S(=O)(=O)Nc1cccc(C(=O)O)c1`, the melting point was in the range of 215 to 217 °C.

As for `Cn1cc(C=O)nn1`, the melting point lay within 103 to 105 °C.

In the case of `NNc1ccc(C(F)(F)F)nn1`, the melting point lay within 132 to 134 °C.

Compound `O=C(O)C1CCN(C(=O)/C=C/c2ccccc2)CC1` yielded a melting point of 191 to 196 °C.

Take `C=CCc1cc(C(=O)O)cc(OC)c1OC`: the melting point was 124 to 126 °C.

`COc1ccc(C(=O)Cc2ccc(F)cc2)cc1` gave a melting point of 106 to 108 °C.

`CSc1cccc(N)c1C` showed a melting point of 44 to 46 °C.

For `O=C(c1cccc(F)c1)N1CCCNCC1`, the melting point lay within 49 to 51 °C.

Compound `CN(C)S(=O)(=O)c1ccccc1CNC(=O)CCl` returned a melting point of 87 to 89 °C.

Regarding `CCN(CC)S(=O)(=O)c1cc(C)c(C)c(N)c1`, the melting point fell in the range of 147 to 149 °C.

Compound `O=C(O)CCNC(=O)c1ccc(F)cc1Cl` returned a melting point of 141 to 143 °C.

`Cc1ccc(C(=O)O)cc1NC(=O)c1ccco1` gave a melting point of 230 to 232 °C.

Compound `CNS(N)(=O)=O` showed a melting point of 49 to 51 °C.

The compound `O=c1ccc(-n2ccnc2)n[nH]1` came in with a melting point of 251 to 253 °C.

With `Cc1nc(-c2ccccn2)sc1C(=O)O`, the melting point fell in the range of 235 to 237 °C.

The compound `COc1ccc(C2(C(=O)O)CCC2)cc1` yielded a melting point of 95 to 97 °C.

Compound `O=C(O)c1cnc(Oc2ccccc2)cn1` displayed a melting point of 134 to 136 °C.

In the case of `Nc1ccccc1-c1nc(-c2ccccc2)n[nH]1`, the melting point was 177 to 179 °C.

With `COC(=O)c1ccc(NC(=O)Oc2ccccc2)cc1`, the melting point lay within 185 to 187 °C.

Compound `Nc1ccc(Cl)cc1C(=O)Nc1ccc(Cl)cn1` returned a melting point of 177 to 179 °C.
